Q: With Cc1sc(S(C)=O)c([N+](=O)[O-])c1C (stereo not drawn) as the compound, how does the logP read?
A: Its logP is 2.65.

Q: Which logP does the source give for CCS(=O)c1ccc2ccccc2n1 (stereo not drawn) here?
A: The logP was 2.43.

Q: Which logP does the source give for CCS(=O)c1ccc(C(C)=O)s1 (stereo not drawn) here?
A: Its logP is 1.31.

Q: Which logP does the source give for Cc1c(C#N)sc(S(C)=O)c1-c1ccc(Cl)cc1 (stereo not drawn) here?
A: The logP was 3.8.

Q: With CS(=O)c1sc(C#N)cc1C#N (stereo not drawn) as the compound, how does the logP read?
A: The logP was 1.31.

Q: With CCS(=O)c1sc(C(C)=O)c(N)c1C#N (stereo not drawn) as the compound, how does the logP read?
A: The logP was 1.82.

Q: With CCS(=O)c1sc(C#N)c(C)c1C(C)=O (stereo not drawn) as the compound, how does the logP read?
A: Its logP is 2.22.

Q: With CCCS(=O)c1sc(C#N)c(Cl)c1C#N (stereo not drawn) as the compound, how does the logP read?
A: Its logP is 2.95.

Q: With CC(=O)c1sc(S(C)=O)c(-c2ccc(Cl)cc2)c1N (stereo not drawn) as the compound, how does the logP read?
A: The logP was 3.18.

Q: With CS(=O)c1ccsc1 (stereo not drawn) as the compound, how does the logP read?
A: The logP was 0.91.

Q: For CCCS(=O)c1sccc1[N+](=O)[O-] (stereo not drawn), which logP is on record?
A: The logP was 2.52.

Q: For Cc1c(C#N)sc(S(C)=O)c1-c1ccccc1 (stereo not drawn), which logP is on record?
A: Its logP is 3.36.

Q: For CCC(=O)c1ccc(S(=O)CC)c([N+](=O)[O-])c1 (stereo not drawn), which logP is on record?
A: Its logP is 2.8.

Q: Which logP does the source give for Cc1csc(S(C)=O)c1[N+](=O)[O-] (stereo not drawn) here?
A: The logP was 2.19.

Q: With CCS(=O)c1sc(C(C)=O)c(Cl)c1C#N (stereo not drawn) as the compound, how does the logP read?
A: The logP was 2.64.

Q: For CS(=O)c1sccc1[N+](=O)[O-] (stereo not drawn), which logP is on record?
A: The logP was 1.69.

Q: For CCCCCC1(c2ccc(S(=O)CC)c([N+](=O)[O-])c2)OCCO1 (stereo not drawn), which logP is on record?
A: Its logP is 5.11.

Q: With CCS(=O)c1ccc(Cl)cc1S(C)(=O)=O (stereo not drawn) as the compound, how does the logP read?
A: Its logP is 2.31.

Q: Which logP does the source give for CS(=O)c1cccs1 (stereo not drawn) here?
A: The logP was 0.91.

Q: For CCS(=O)c1c(Cl)cncc1Cl (stereo not drawn), which logP is on record?
A: Its logP is 2.1.

Q: With CCS(=O)c1sc(C(C)=O)c(C)c1C#N (stereo not drawn) as the compound, how does the logP read?
A: Its logP is 2.22.

Q: Which logP does the source give for COc1c(C#N)sc(S(C)=O)c1C#N (stereo not drawn) here?
A: The logP was 2.02.

Q: Which logP does the source give for CCS(=O)c1nc(C)cc(C)c1C#N (stereo not drawn) here?
A: The logP was 1.77.

Q: Which logP does the source give for CCS(=O)c1sc(C(C)=O)c(C)c1[N+](=O)[O-] (stereo not drawn) here?
A: The logP was 2.81.

Q: For CCS(=O)c1sccc1[N+](=O)[O-] (stereo not drawn), which logP is on record?
A: The logP was 2.06.

Q: Which logP does the source give for CC(C)CS(=O)c1sccc1[N+](=O)[O-] (stereo not drawn) here?
A: Its logP is 2.93.

Q: Which logP does the source give for CCS(=O)c1sc(C#N)cc1C#N (stereo not drawn) here?
A: Its logP is 1.78.

Q: With CCS(=O)c1ccc([N+](=O)[O-])cc1C#N (stereo not drawn) as the compound, how does the logP read?
A: Its logP is 2.15.

Q: Which logP does the source give for CC(=O)c1sc(S(C)=O)c(C#N)c1-c1ccc(Cl)cc1 (stereo not drawn) here?
A: The logP was 3.31.

Q: Which logP does the source give for CC(=O)c1sc(S(C)=O)c(-c2ccccc2)c1C (stereo not drawn) here?
A: Its logP is 3.26.

Q: For CS(=O)c1ccc([N+](=O)[O-])s1 (stereo not drawn), which logP is on record?
A: Its logP is 1.4.

Q: Which logP does the source give for CCOC(=O)c1cc(C#N)c(S(C)=O)s1 (stereo not drawn) here?
A: The logP was 2.27.

Q: Which logP does the source give for CS(=O)c1sccc1C#N (stereo not drawn) here?
A: Its logP is 0.96.

Q: For CS(=O)c1sccc1Br (stereo not drawn), which logP is on record?
A: The logP was 1.71.

Q: With CCCCS(=O)c1sc(C#N)c(Cl)c1C#N (stereo not drawn) as the compound, how does the logP read?
A: Its logP is 3.44.

Q: For CCCCCC(=O)c1ccc(S(=O)CC)c([N+](=O)[O-])c1 (stereo not drawn), which logP is on record?
A: Its logP is 4.36.

Q: Which logP does the source give for CS(=O)c1sc(C#N)c(Cl)c1C#N (stereo not drawn) here?
A: The logP was 2.15.

Q: With CCS(=O)c1sc(Cl)cc1C#N (stereo not drawn) as the compound, how does the logP read?
A: The logP was 2.31.

Q: Which logP does the source give for CCS(=O)c1cnc2ccccc2n1 (stereo not drawn) here?
A: Its logP is 2.29.

Q: Which logP does the source give for CS(=O)c1nc(-c2ccccc2)cc(C(F)(F)F)n1 (stereo not drawn) here?
A: The logP was 3.01.

Q: For CCS(=O)c1nc(C)c([N+](=O)[O-])c(C)c1C#N (stereo not drawn), which logP is on record?
A: Its logP is 2.44.

Q: For CCS(=O)c1ccc(C(=O)c2ccccc2)cc1[N+](=O)[O-] (stereo not drawn), which logP is on record?
A: Its logP is 3.82.

Q: For CCCS(=O)c1sc(C#N)cc1C#N (stereo not drawn), which logP is on record?
A: Its logP is 2.18.

Q: Which logP does the source give for CCS(=O)c1sc(C#N)c(OC)c1C#N (stereo not drawn) here?
A: Its logP is 2.35.

Q: With CCCCS(=O)c1sc(C#N)cc1C#N (stereo not drawn) as the compound, how does the logP read?
A: Its logP is 2.64.

Q: For CC(=O)c1sc(S(C)=O)c(-c2ccc(Cl)cc2)c1C (stereo not drawn), which logP is on record?
A: Its logP is 3.82.

Q: For CS(=O)c1scc(-c2ccccc2)c1[N+](=O)[O-] (stereo not drawn), which logP is on record?
A: Its logP is 3.2.

Q: Which logP does the source give for CCS(=O)c1ccc([N+](=O)[O-])cn1 (stereo not drawn) here?
A: Its logP is 1.74.
